The source of these data is paper PMC11705763, “Tumor-associated antigen prediction using a single-sample gene expression state inference algorithm” (Cell Reports Methods, 2024).

For experiment [1], the target named is HLA-A02:01 (Homo sapiens, UniProt P04439, D140Y/D185E/D98H/E176V/E277Q/G131W/G231S/I119V/I121R/I166T/I218V/L300P/L318F/N151K/N90K/P208A/P217A/Q86G/Q94H/R138H/R169H/T345S). Kind of experiment: Peptide-MHC tetramer exchange assay (competitive peptide binding, QuickSwitch Quant HLA-A02:01 tetramer). Conditions: percentage of replacement of the exchangeable peptide by the test peptide.

For experiment [2], the system named is CD8+ T cell cultures / PBMCs from healthy donors. The experiment is described as follows: IFN-gamma ELISpot assay.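 For Donor2 value: Spot-forming units per 100000 cells.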 It is filed as cell-based, human. Set-up: Donor1_value / Donor3_value / Donor4_value: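 Spot-forming units per 100000 cells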. Conditions: IFN-gamma ELISpot result; for Donor1_value: healthy donor 1; for Donor2_value: healthy donor 2; for Donor3_value: healthy donor 3; for Donor4_value: healthy donor 4. From the text: We experimentally assessed the binding affinity of the 38 peptides through a competitive peptide binding assay (STAR Methods). […] Subsequently, we investigated the immunogenicity of these peptides using an interferon (IFN)-gamma ELISpot assay (STAR Methods). […] These peptides represent promising candidates for further investigation as potential immunotherapy targets. Peripheral blood mononuclear cells (PBMCs) from healthy donors were isolated at Zhongshan Hospital, Fudan University using Lymphoprep (07851, Stemcell) and cultured with ImmunoCult-XF T cell Expansion Medium (10981, Stemcell) supplemented with human recombinant IL-2 (78036, Stemcell). ImmunoCult Human CD3/CD28 T cell Activator (10971, Stemcell) was added to the cell suspension, which was then incubated for 3 days. Subsequent expansion of the cell suspension was carried out every two days as per manufacturer's instructions. The entire process was approved by the Institutional Review Board of Zhongshan Hospital, Fudan University (B2024-412). ELISPOT plates (2110003, […]) were pretreated with PBS before dispensing cell suspensions (nearly 1×10^5 cells) with synthesized peptide (10 μg/mL) into each well. After incubation at 37°C in a CO2 incubator for 20 h, plates were washed and incubated with anti-human IFN-γ followed by Streptavidin-HRP. Staining of Streptavidin-HRP was performed using AEC solution, and the reaction was stopped by rinsing with cold tap water. ELISPOT plates were scanned and counted using an ImmunoSpot plate reader and associated software from Cellular Technologies, Ltd.

Regarding GLLMPLLGVI, the Q1_Replacement_Percentage in experiment [1] is 91.4%. In experiment [2], this sequence showed a Donor1_value of 631, a Donor2_value of 10, a Donor3_value of 3 and a Donor4_value of 0.
Take KMKVLEFLAKV: in experiment [1], the Q1_Replacement_Percentage is 42.8%. In experiment [2], this sequence came in with a Donor1_value of 0, a Donor2_value of 2, a Donor3_value of 18 and a Donor4_value of 0.
RLELVFGL had a Q1_Replacement_Percentage in experiment [1] of 23.4%. For the same sequence, in experiment [2], the Donor1_value is given as 0, the Donor2_value turned out to be 0, the Donor3_value is 8 and the Donor4_value was determined as 0.
In experiment [2], LLFGLALIEV returned a Donor1_value of 28, a Donor2_value of 42, a Donor3_value of 7 and a Donor4_value of 0.
As for FLLLVDAAVQ, the Q1_Replacement_Percentage in experiment [1] was 29.3%. In experiment [2], this sequence displayed a Donor1_value of 0, a Donor2_value of 31, a Donor3_value of 16 and a Donor4_value of 0.
As to KVADLVGFLL, the Q1_Replacement_Percentage in experiment [1] is 84.3%. Besides, in experiment [2], the Donor1_value worked out at 570, the Donor2_value is 0, the Donor3_value is on record as 2 and the Donor4_value is on record as 0.
The sequence LVLGTLEEV yielded a Q1_Replacement_Percentage in experiment [1] of 85.1%. In experiment [2], the Donor1_value amounted to 666, the Donor2_value came out at 17, the Donor3_value was determined as 15 and the Donor4_value is 11.
Taken in the same sequence, the figures for FLAKLNNTV were 88.1%, 2, 56, 18 and 0.
On the same counts, the results for FLRFANYCRI are 30%, 0, 8, 8 and 0.
Regarding YIYDILLPV, the Q1_Replacement_Percentage in experiment [1] is recorded as 88.9%. In experiment [2], this sequence displayed a Donor1_value of 17, a Donor2_value of 54, a Donor3_value of 19 and a Donor4_value of 0.
As to YRLADHVGCV, the Q1_Replacement_Percentage in experiment [1] is 56.3%. Further, in experiment [2], the Donor1_value was 0, the Donor2_value was 30, the Donor3_value is given as 9 and the Donor4_value was 0.
In turn, SLLDLYQLA had a Q1_Replacement_Percentage in experiment [1] of 91.5%. In experiment [2], the Donor1_value turned out to be 0, the Donor2_value is on record as 1, the Donor3_value turned out to be 0 and the Donor4_value worked out at 0.
As for GLLMPLLGVIFL, the Q1_Replacement_Percentage in experiment [1] turned out to be 78.9%. In experiment [2], this sequence returned a Donor1_value of 4, a Donor2_value of 33, a Donor3_value of 8 and a Donor4_value of 0.
Taken in the same sequence, the figures for YVKVLEYVIKV were 14.7%, 0, 56, 17 and 0.
On the same counts, the results for FLSTLTTFI are 89.1%, 0, 41, 15 and 0.
Taken in the same sequence, the figures for FLLLVDAAV were 83.5%, 571, 34, 0 and 12.
Consider LLASYNDDDIYL, for which, in experiment [1], the Q1_Replacement_Percentage turned out to be 98.2%. In experiment [2], this sequence registered a Donor1_value of 426, a Donor2_value of 0, a Donor3_value of 3 and a Donor4_value of 8.
